Source: patent US8829011B2 (Janssen Pharmaceutica NV, priority 2008, dated 2014)

Assays:
[1] = target: T1, human recombinant 5-HT2A receptor (Homo sapiens, UniProt P28223); test: Affinity for 5-HT2A receptor binding sites (competitive radioligand binding, [3H]ketanserin); details: membranes of NIH3T3 with h5-HT2A, * = tested as hydrochloride salt
T1 construct: expressed in transfected cells; host or cells: NIH3T3
Procedure: (§1) Stock drug solutions (10 mM) were prepared in DMSO (the final assay concentration of DMSO not exceeding 0.4%). Drug dilutions were prepared in assay buffer.
(§2) Sigmoidal inhibition curves were generated and fitted by nonlinear regression analysis (GraphPad Prism).
(§3) 2. Affinity for 5HT2 Receptor Binding Sites
(§4) Receptor binding was performed using the human recombinant 5-HT2A (GB: X57830), 5-HT2B (GB: Z36748) and 5-HT2C (GB: M81778) receptors. The affinity of the compounds for the 3 different human 5-HT2 receptor subtypes was evaluated by competitive radioligand binding assays using [^3H]ketanserin (h5-HT2A) or [^3H]mesulergine (h5-HT2B and h5-HT2C). The assays were performed on membranes prepared from NIH3T3 stably transfected with h5-HT2A or CHO stably transfected with h5-HT2B and h5-HT2C.

[2] = target: T2, human recombinant 5-HT6 receptor (Homo sapiens, UniProt P50406); test: Affinity for 5-HT6 receptor binding sites (competitive radioligand binding, [3H]LSD); details: membranes of HEK-293 with h5-HT6, * = tested as hydrochloride salt
T2 construct: expressed in transfected cells; host or cells: HEK-293
T2 sequence (P50406 whole entry): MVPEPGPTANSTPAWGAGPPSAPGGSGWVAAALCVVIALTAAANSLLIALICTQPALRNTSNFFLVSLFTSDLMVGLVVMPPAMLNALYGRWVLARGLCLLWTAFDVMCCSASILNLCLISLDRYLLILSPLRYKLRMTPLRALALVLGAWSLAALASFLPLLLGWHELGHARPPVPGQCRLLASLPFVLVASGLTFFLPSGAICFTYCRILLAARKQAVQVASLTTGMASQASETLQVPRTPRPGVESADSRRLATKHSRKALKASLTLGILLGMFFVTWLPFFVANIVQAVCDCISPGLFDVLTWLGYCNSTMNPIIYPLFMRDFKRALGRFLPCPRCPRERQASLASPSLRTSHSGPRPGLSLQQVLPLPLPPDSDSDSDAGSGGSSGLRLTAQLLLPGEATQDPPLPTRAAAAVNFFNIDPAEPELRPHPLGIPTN
Procedure: as §1, §2
3. Affinity for 5-HT6 Receptor Binding Sites
Receptor binding was performed using the human recombinant 5-HT6 (GB: BC0794995) receptor. The affinity of the compounds for the human 5-HT6 receptor was evaluated by competitive radioligand binding assays using [^3H]LSD. The assays were performed on membranes prepared from HEK-293 stably transfected with h5-HT6. Non-specific binding was estimated in the presence of 1 μM clozapine.

[3] = target: T3, human recombinant 5-HT2C receptor (Homo sapiens, UniProt P28335); test: Affinity for 5-HT2C receptor binding sites (competitive radioligand binding, [3H]mesulergine); details: membranes of CHO with h5-HT2C, * = tested as hydrochloride salt
T3 construct: expressed in transfected cells; host or cells: CHO
T3 sequence (P28335 33-458): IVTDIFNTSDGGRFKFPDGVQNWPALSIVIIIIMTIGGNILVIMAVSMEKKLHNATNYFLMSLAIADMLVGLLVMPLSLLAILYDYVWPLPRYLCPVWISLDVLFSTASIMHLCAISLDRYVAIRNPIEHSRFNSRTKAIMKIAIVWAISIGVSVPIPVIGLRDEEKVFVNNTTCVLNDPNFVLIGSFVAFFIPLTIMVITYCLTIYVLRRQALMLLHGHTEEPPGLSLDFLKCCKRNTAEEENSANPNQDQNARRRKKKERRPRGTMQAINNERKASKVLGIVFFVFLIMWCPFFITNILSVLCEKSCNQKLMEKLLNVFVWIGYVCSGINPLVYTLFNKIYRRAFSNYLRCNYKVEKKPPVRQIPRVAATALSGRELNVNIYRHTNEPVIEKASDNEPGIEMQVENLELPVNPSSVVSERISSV
Procedure: as §1, §2, §3, §4

[4] = target: T4, human recombinant 5-HT2B receptor (Homo sapiens, UniProt P41595); test: Affinity for 5-HT2B receptor binding sites (competitive radioligand binding, [3H]mesulergine); details: membranes of CHO with h5-HT2B, * = tested as hydrochloride salt
T4 construct: expressed in transfected cells; host or cells: CHO
T4 sequence (P41595 whole entry): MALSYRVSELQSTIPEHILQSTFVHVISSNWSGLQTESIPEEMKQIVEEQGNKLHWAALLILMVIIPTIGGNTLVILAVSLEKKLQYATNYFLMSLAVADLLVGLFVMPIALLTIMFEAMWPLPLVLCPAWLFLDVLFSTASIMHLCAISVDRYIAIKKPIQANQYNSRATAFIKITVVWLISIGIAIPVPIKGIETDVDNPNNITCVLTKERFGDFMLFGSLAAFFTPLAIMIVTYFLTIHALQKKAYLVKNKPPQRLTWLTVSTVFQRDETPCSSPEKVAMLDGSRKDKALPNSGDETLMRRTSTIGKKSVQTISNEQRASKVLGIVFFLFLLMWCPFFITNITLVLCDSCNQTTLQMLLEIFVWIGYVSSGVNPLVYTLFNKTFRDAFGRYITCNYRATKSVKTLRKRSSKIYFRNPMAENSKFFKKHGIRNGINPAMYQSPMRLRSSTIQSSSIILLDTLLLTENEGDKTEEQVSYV
Procedure: as §1, §2, §3, §4

T1 sequence (P28223 whole entry): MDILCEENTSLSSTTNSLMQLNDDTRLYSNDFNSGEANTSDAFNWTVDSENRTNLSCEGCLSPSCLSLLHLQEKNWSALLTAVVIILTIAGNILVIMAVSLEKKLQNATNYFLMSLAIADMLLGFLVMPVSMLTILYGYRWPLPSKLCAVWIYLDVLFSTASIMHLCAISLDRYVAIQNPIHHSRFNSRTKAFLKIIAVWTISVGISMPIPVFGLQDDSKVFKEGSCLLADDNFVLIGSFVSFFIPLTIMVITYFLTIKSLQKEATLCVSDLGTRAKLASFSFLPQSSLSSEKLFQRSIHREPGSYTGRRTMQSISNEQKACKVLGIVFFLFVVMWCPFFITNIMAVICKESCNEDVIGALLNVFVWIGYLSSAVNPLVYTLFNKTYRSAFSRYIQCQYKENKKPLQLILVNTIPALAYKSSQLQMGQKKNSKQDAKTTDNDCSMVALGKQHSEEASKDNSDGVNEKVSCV

Row | Compound | Ki [1] [nM] | Ki [2] [nM] | Ki [3] [nM] | Ki [4] [nM]
1 | Cc1ccc(-c2nc(N3CCOC[C@@H]3C)nc3c2CCNCC3)cc1Cl [Example 93, 4-(3-chloro-4-methylphenyl)-6,7,8,9-tetrahydro-2-[(3S)-3-methyl-4-morpholinyl]-5H-pyrimido[4,5-d]azepine] | 150 | 9 | 28 | 18
2 | Clc1ccc(-c2nc(N3CCOCC3)nc3c2CCNCC3)cc1 [Example 58, 4-(4-Chloro-phenyl)-2-morpholin-4-yl-6,7,8,9-tetrahydro-5H-pyrimido[4,5-d]azepine] | 17 | 102 | 20 | 30
3 | COc1ccc(-c2nc(N3CCCC3C)nc3c2CCNCC3)cc1Cl (stereo not drawn) [Example 66, 4-(3-chloro-4-methoxyphenyl)-6,7,8,9-tetrahydro-2-(2-methyl-1-pyrrolidinyl)-5H-pyrimido[4,5-d]azepine] | 61 | 47 | 46 | 8
4 | COc1ccc(-c2nc(N3[C@H](C)CCC[C@@H]3C)nc3c2CCNCC3)cc1F [Example 89, 2-[(2R,6S)-2,6-dimethyl-1-piperidinyl]-4-(3-fluoro-4-methoxyphenyl)-6,7,8,9-tetrahydro-5H-pyrimido[4,5-d]azepine] | 180 | 35 | 33 | 3
5 | Cc1ccc(-c2nc(N3CCC(F)CC3)nc3c2CCNCC3)cc1 [Example 69, 2-(4-fluoro-1-piperidinyl)-6,7,8,9-tetrahydro-4-(4-methylphenyl)-5H-pyrimido[4,5-d]azepine] | 35 | 13 | 5 | 5
6 | C[C@H]1COCCN1c1nc2c(c(-c3cnc4ccccc4c3)n1)CCNCC2 [Example 95, 6,7,8,9-tetrahydro-2-[(3S)-3-methyl-4-morpholinyl]-4-(3-quinolinyl)-5H-pyrimido[4,5-d]azepine] | 150 | 7 | 810 | 580
7 | Cc1ccc(-c2nc(N3CCS(=O)(=O)CC3)nc3c2CCNCC3)cc1 [Example 64, 2-(1,1-Dioxo-1λ^6-thiomorpholin-4-yl)-4-p-tolyl-6,7,8,9-tetrahydro-5H-pyrimido[4,5-d]azepine] | 520 | 29 | 1260 | 620
8 | C[C@@H]1CCC[C@H](C)N1c1nc2c(c(-c3ccc(Cl)c(F)c3)n1)CCNCC2 [Example 84, 4-(4-chloro-3-fluorophenyl)-2-[(2R,6S)-2,6-dimethyl-1-piperidinyl]-6,7,8,9-tetrahydro-5H-pyrimido[4,5-d]azepine] | 130 | 52 | 18 | 2

Second part, the compound after the results:

Row | Ki [1] [nM] | Ki [2] [nM] | Ki [3] [nM] | Ki [4] [nM] | Compound
9 | 48 | 35 | 17 | 3 | COc1ccc(-c2nc(N3[C@H](C)CCC[C@@H]3C)nc3c2CCNCC3)cc1 [Example 82, 2-[(2R,6S)-2,6-dimethyl-1-piperidinyl]-6,7,8,9-tetrahydro-4-(4-methoxyphenyl)-5H-pyrimido[4,5-d]azepine]
10 | 38 | 39 | 15 | 16 | Cc1ccc(-c2nc(N3CCC(F)CC3)nc3c2CCNCC3)cc1Cl [Example 76, 4-(3-chloro-4-methylphenyl)-2-(4-fluoro-1-piperidinyl)-6,7,8,9-tetrahydro-5H-pyrimido[4,5-d]azepine]
11 | 21 | 6 | 4 | 8 | Cc1ccc(-c2nc(N3CCOC[C@H]3C)nc3c2CCNCC3)cc1 [Example 100, 6,7,8,9-tetrahydro-2-[(3R)-3-methyl-4-morpholinyl]-4-(4-methylphenyl)-5H-pyrimido[4,5-d]azepine]
12 | 100 | 13 | 69 | 35 | C[C@H]1COCCN1c1nc2c(c(-c3ccc(Cl)cc3)n1)CCNCC2 [Example 96, 4-(4-chlorophenyl)-6,7,8,9-tetrahydro-2-[(3S)-3-methyl-4-morpholinyl]-5H-pyrimido[4,5-d]azepine]
